Each molecule was assayed against T1, Solute carrier family 22 member 6 (Rattus norvegicus, UniProt O35956) (assay: TP_TRANSPORTER: inhibition of PAH uptake in Xenopus laevis oocytes).
T1 sequence (O35956 whole entry): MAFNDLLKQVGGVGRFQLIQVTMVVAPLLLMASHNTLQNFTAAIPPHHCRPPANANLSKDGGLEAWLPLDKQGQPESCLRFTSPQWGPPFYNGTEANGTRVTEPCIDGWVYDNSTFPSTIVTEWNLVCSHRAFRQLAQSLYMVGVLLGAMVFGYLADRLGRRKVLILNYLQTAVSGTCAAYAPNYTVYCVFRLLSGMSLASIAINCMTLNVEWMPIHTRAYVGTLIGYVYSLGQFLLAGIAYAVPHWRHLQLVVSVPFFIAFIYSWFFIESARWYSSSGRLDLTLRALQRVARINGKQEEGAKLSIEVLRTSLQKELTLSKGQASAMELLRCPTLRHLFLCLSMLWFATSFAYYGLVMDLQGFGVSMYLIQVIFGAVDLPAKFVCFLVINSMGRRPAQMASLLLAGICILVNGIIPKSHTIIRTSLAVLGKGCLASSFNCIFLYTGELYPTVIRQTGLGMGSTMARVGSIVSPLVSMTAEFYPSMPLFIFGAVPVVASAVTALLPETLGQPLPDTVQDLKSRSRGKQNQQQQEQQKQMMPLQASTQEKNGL
Type: functional, cell-based, Oocyte

Ki	SMILES
39.5 µM	CCCNC(=O)NS(=O)(=O)c1ccc(Cl)cc1 [CHLORPROPAMIDE]
1.6 µM	COc1ccc(Cl)cc1C(=O)NCCc1ccc(S(=O)(=O)NC(=O)NC2CCCCC2)cc1 [GLYBURIDE]
9.2 µM	CC(C)[C@H]1CC[C@H](C(=O)N[C@H](Cc2ccccc2)C(=O)O)CC1 [NATEGLINIDE]
55.5 µM	CCCCNC(=O)NS(=O)(=O)c1ccc(C)cc1 [TOLBUTAMIDE]

Source: ChEMBL document CHEMBL2074515, “Inhibitory effect of anti-diabetic agents on rat organic anion transporter rOAT1” (Eur J Pharmacol, 2000)
